Assay results published in publication PMC11981937 (Nature, 2025).
Where “and” joins values, the source holds several entries; their conditions need not be identical. Identical values can stand only once. Like-named read-outs stand apart in the source and are kept apart here.

Tests used:
SARS-CoV-2 = assay type: in vivo, Syrian golden hamster; details: for Infectious virus in the lung (TCID50), Copy number, individual animal / Infectious virus in the lung (TCID50), Log 10, individual animal / Viral load (viral RNA) in the lung, Copy number, individual animal / Viral load (viral RNA) in the lung, Log 10, individual animal / Infectious virus in the lung (TCID50), average Log 10 / Infectious virus in the lung (TCID50), median Log 10 / Viral load (viral RNA) in the lung, average Log 10 / Viral load (viral RNA) in the lung, median Log 10: 250mg/kg/ BID; for Infectious virus in the lung (TCID50), average Log 10 / Infectious virus in the lung (TCID50), median Log 10 / Viral load (viral RNA) in the lung, average Log 10 / Viral load (viral RNA) in the lung, median Log 10: n=5
[1] = Post-exposure Syrian golden hamster model, body weight; details: in vivo
[2] = tested on: SARS-CoV-2 (USA-WA1/2020); set-up: species or system Syrian golden hamster; details: hamster, in vivo

Structure (SMILES): CC(C)(C)[C@H](NC(=O)C(F)(F)F)C(=O)N1C[C@H]2[C@@H]([C@H]1C(=O)N[C@H](C#N)C[C@@H]1CCNC1=O)C2(C)C [nirmatrelvir, reference compound]
- Infectious virus in the lung (TCID50), Copy number, individual animal (SARS-CoV-2; 10 h post exposure): 2.74E+02 and 1.40E+02 and 3.86E+02
- Infectious virus in the lung (TCID50), Log 10, individual animal (SARS-CoV-2; 10 h post exposure): 2.44 Log 10 and 3.68 Log 10 and 2.14 Log 10 and 3.67 Log 10 and 2.59 Log 10
- Viral load (viral RNA) in the lung, Copy number, individual animal (SARS-CoV-2; 10 h post exposure): 3.26E+07 and 1.08E+07 and 4.11E+07 and 4.76E+07 and 5.79E+06
- Viral load (viral RNA) in the lung, Log 10, individual animal (SARS-CoV-2; 10 h post exposure): 7.51 Log 10 and 7.03 Log 10 and 7.61 Log 10 and 7.68 Log 10 and 6.76 Log 10
- Infectious virus in the lung (TCID50), average Log 10 (SARS-CoV-2; 10 h post exposure): 2.90 Log 10
- Infectious virus in the lung (TCID50), median Log 10 (SARS-CoV-2; 10 h post exposure): 2.59 Log 10
- Viral load (viral RNA) in the lung, average Log 10 (SARS-CoV-2; 10 h post exposure): 7.32 Log 10
- Viral load (viral RNA) in the lung, median Log 10 (SARS-CoV-2; 10 h post exposure): 7.51 Log 10
- Infectious virus in the lung (TCID50), Copy number, individual animal (SARS-CoV-2; 24 h post exposure): 3.74E+03 and 5.43E+02 and 1.15E+04 and 7.40E+03
- Infectious virus in the lung (TCID50), Log 10, individual animal (SARS-CoV-2; 24 h post exposure): 3.57 Log 10 and 2.74 Log 10 and 4.06 Log 10 and 3.67 Log 10 and 3.87 Log 10
- Viral load (viral RNA) in the lung, Copy number, individual animal (SARS-CoV-2; 24 h post exposure): 4.02E+07 and 9.08E+07 and 1.10E+07 and 3.49E+07 and 2.71E+07
- Viral load (viral RNA) in the lung, Log 10, individual animal (SARS-CoV-2; 24 h post exposure): 7.60 Log 10 and 7.96 Log 10 and 7.04 Log 10 and 7.54 Log 10 and 7.43 Log 10
- Infectious virus in the lung (TCID50), average Log 10 (SARS-CoV-2; 24 h post exposure): 3.58 Log 10
- Infectious virus in the lung (TCID50), median Log 10 (SARS-CoV-2; 24 h post exposure): 3.67 Log 10
- Viral load (viral RNA) in the lung, average Log 10 (SARS-CoV-2; 24 h post exposure): 7.52 Log 10
- Viral load (viral RNA) in the lung, median Log 10 (SARS-CoV-2; 24 h post exposure): 7.54 Log 10
- Infectious virus in the lung (TCID50), Copy number, individual animal (SARS-CoV-2; 48 h post exposure): 5.70E+02 and 4.90E+02 and 1.00E+02 and 6.63E+02 and 1.50E+03
- Infectious virus in the lung (TCID50), Log 10, individual animal (SARS-CoV-2; 48 h post exposure): 2.76 Log 10 and 2.69 Log 10 and 2.00 Log 10 and 2.82 Log 10 and 3.17 Log 10
- Viral load (viral RNA) in the lung, Copy number, individual animal (SARS-CoV-2; 48 h post exposure): 1.41E+08 and 2.05E+07 and 3.56E+08 and 4.63E+07 and 6.23E+07
- Viral load (viral RNA) in the lung, Log 10, individual animal (SARS-CoV-2; 48 h post exposure): 8.15 Log 10 and 7.31 Log 10 and 8.55 Log 10 and 7.67 Log 10 and 7.79 Log 10
- Infectious virus in the lung (TCID50), average Log 10 (SARS-CoV-2; 48 h post exposure): 2.69 Log 10
- Infectious virus in the lung (TCID50), median Log 10 (SARS-CoV-2; 48 h post exposure): 2.76 Log 10
- Viral load (viral RNA) in the lung, average Log 10 (SARS-CoV-2; 48 h post exposure): 7.89 Log 10
- Viral load (viral RNA) in the lung, median Log 10 (SARS-CoV-2; 48 h post exposure): 7.79 Log 10
- reduction of lung viral RNA load and infectious virus (in words) (SARS-CoV-2; post-exposure, 250 mg per kg BID): not significant
- Average body weight change (%) on day 4 compared to day 0 [1]: -2.756% and -3.747% and -5.087%
- Infectious SARS-CoV2 virus in the lung, Avg [2]: 4651963 PFU/g Lung
- Infectious SARS-CoV2 virus in the lung, Log10, Avg [2]: 5.697 Log10 PFU/g Lung
- SARS-CoV2 viral load (viral RNA) in the lung, Avg [2]: 46452968 RNA copies/mL
- SARS-CoV2 viral load (viral RNA) in the lung, Log10, Avg [2]: 6.876 Log10 RNA copies/mL
